These results are taken from patent US4452985A, “2-Guanyl-4-(substituted phenyl) thiazole derivatives” (American Home Products Corporation, priority 1983, dated 1984).

Where a name gives a salt, the structure may show the parent alone. Read-outs that look alike come from different tables or passages of the source.

One series has as its system gastric acid secretion. In words: Gastric secretion in the pylorus-ligated rat (modified Shay procedure). It counts as in vivo. The settings on record: intraduodenal, 4 hours after ligation, read-out: % Inhibition of acid output; for inhibition in vivo at 32 mg/kg: 32 mg/kg i.d.; for inhibition in vivo at 4 mg/kg: 4 mg/kg i.d.; for inhibition in vivo at 16 mg/kg: 16 mg/kg i.d. As to the method:
The procedure for testing gastric secretion in the rat, a modification of the procedure of Shay et al., Gastroenterology, 26, 906-13 (1954) is carried out as follows:
Male Charles River rats weighing 200-300 grams are deprived of food but not water for 24 hours prior to use. Water is, however, withheld during the experiment. The rats are weighed, anesthetized, and the pylorus ligated according to the method of Shay et al. Treatment or vehicle control is then administered interduodenally (i.d.). Rats are housed 2/cage and sacrificed with CO2 four hours after ligation. The stomachs are removed, rinsed, and contents emptied into a graduated centrifuge tube. The tubes are centrifuged for 20 minutes at 2,000 RPM and the volume of gastric juice recorded. Any samples obviously contaminated by feces, food or hemolysis are eliminated. An aliquot of each is frozen for later analysis of Na^+, K^+ and Cl^- concentration. The pH is measured and 1 ml. of gastric juice is titrated with 0.1 N NaOH to a pH of 7.0-7.4. Titratable acid output is calculated in microequivalents and the percent inhibition of acid output is calculated as follows: [formula]

Series [1] deals with T1, H2 histamine receptors (Cavia porcellus, UniProt P47747).
T1 construct: from tissue; host or cells: guinea pig right atrium (spontaneously beating)
T1 sequence (P47747 whole entry): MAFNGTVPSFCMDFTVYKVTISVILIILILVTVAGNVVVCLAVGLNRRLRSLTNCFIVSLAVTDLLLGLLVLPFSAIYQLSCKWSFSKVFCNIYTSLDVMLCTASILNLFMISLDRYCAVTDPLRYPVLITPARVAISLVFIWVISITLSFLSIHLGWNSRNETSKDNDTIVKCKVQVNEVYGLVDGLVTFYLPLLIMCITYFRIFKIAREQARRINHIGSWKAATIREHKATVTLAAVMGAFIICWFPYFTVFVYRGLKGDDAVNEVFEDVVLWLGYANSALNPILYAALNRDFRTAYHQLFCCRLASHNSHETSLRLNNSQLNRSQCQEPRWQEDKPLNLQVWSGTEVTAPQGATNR
In words: Guinea pig heart (spontaneously beating right atrium) test: antagonism of histamine-induced positive chronotropic response. The format is cell-based. The settings on record: 30 min preincubation, 32 °C, pH 7.4. The procedure: The guinea pig heart atrium test is carried out as follows:
A guinea pig right atrium is suspended at 1 g. tension (isometric) in a thermostatically controlled (32° C.) tissue bath (10 ml.) containing oxygenated (95% O2; 5% CO2) Krebs-Haenseleit buffer (pH 7.4). The tissue is allowed to stabilize over 1 hour. Individual contractions are recorded with a force-displacement transducer through a strain gauge coupler. A control dose-response curve to histamine in the above described tissue bath is obtained after which the tissue is washed 3 times and allowed to re-equilibrate to basal rate. The test compound is added to the tissue bath at the desired final concentration. Thirty minutes after addition of the compound, a fresh histamine dose response curve is again obtained. Then the response to histamine in the presence of antagonist is compared to the histamine control response. This procedure is repeated, using fresh tissues, for each concentration of antagonist tested.

The conditions of series [2]: cited from earlier work.
The subject of series [3] is H2 histamine receptors. The settings on record: cited from earlier work.
Where [4] appears, read: values marked *: result of only one experiment, read-out: pKB value (converted).
Where [5] appears, read: histamine dose-response, three experiments, read-out: pA2 Value (apparent dissociation constant of the H2 antagonist) (converted).

For `N#CCc1ccc(-c2csc(NC(=N)N)n2)cc1` [Example 2, [4-[4-(Cyanomethyl)Phenyl]-2-Thiazolyl]Guanidine, Hydrobromide], the inhibition in vivo at 32 mg/kg in the series with gastric acid secretion stood at 79%.
As to `N=C(N)Nc1nc(-c2cccc(C(N)=O)c2)cs1` [Example 11, 3-[2-[(Aminoiminomethyl)Amino]-4-Thiazolyl]Benzenecarboxamide, Hydrobromide], the Kb on H2 histamine receptors [1] (setting [4]) was 50.1 nM.
As to `N#Cc1cccc(-c2csc(NC(=N)N)n2)c1` [Example 3, [4-(3-Cyanophenyl)-2-Thiazolyl]Guanidine, Hydrobromide, Hydrate], on H2 histamine receptors [1] (setting [5]), the Kb is 251 nM. The inhibition in vivo at 4 mg/kg with gastric acid secretion came out at 40%.
In the case of `CCOC(=N)c1cccc(-c2csc(NC(=N)N)n2)c1` [Example 10, 3-[2-[(Aminoiminomethyl)Amino]-4-Thiazolyl]Benzenecarboximidic Acid Ethyl Ester], the inhibition in vivo at 4 mg/kg with gastric acid secretion came to 41%.
As for `N=C(N)Nc1nc(-c2cccc(-c3noc(C(F)(F)F)n3)c2)cs1` [Example 8, [4-[3-[5-(Trifluoromethyl)-1,2,4-Oxadiazol-3-yl]Phenyl]-2-Thiazoyl]Guanidine, Hydrochloride], in the series with gastric acid secretion, the inhibition in vivo at 32 mg/kg was determined as 84%.
`CN/C(=N/CCSCc1nc[nH]c1C)NC#N` [Cimetidine]: in series [2] (elderly patients), the “tendency to cause confusional states” value was “tendency to cause confusional states in elderly patients”. Also, in series [2] (patients), the anti-androgenic activity result is recorded as “anti-androgenic activity” and the duration of action result is given as “short duration of action”.
Turning to `N=C(N)Nc1nc(-c2cccc(C(N)=NOC(N)=O)c2)cs1` [Example 6, N-[(Aminocarbonyl)oxy]-3-[2-[(Aminoiminomethyl)Amino]-4-Thiazolyl]Benzenecarboximidamide, Hydrochloride, Hemihydrate], the Kb on H2 histamine receptors [1] (setting [5]) was 63.1 nM.
Regarding `N=C(N)Nc1nc(-c2cccc(C(N)=NO)c2)cs1` [Example 5, 3-[2-[(Aminoiminomethyl)Amino]-4-Thiazolyl]-N-Hydroxybenzenecarboximidamide, Dihydrochloride], at H2 histamine receptors [1] (setting [5]), the Kb was 50.1 nM. Moreover, the inhibition in vivo at 32 mg/kg with gastric acid secretion amounted to 68%.
Take `N=C(N)Nc1nc(-c2cccc(C(=O)NN)c2)cs1` [Example 13, 3-[2-[(Aminoiminomethyl)Amino]-4-Thiazolyl]Benzoic Acid Hydrazide, Hydrochloride]: the Kb at H2 histamine receptors [1] (setting [4]) is 79.4 nM.
On to `CN=C(N)c1cccc(-c2csc(NC(=N)N)n2)c1` [Example 12, 3-[2-[(Aminoiminomethyl)Amino]-4-Thiazolyl]-N-Methylbenzenecarboximidamide,Quarter Hydrate], for which the Kb on H2 histamine receptors [1] (setting [4]) was 6.31 nM. For the same molecule, in the series with gastric acid secretion, the inhibition in vivo at 16 mg/kg is 75%.
Take `N#Cc1ccc(-c2csc(NC(=N)N)n2)cc1` [Example 1, [4-(4-Cyanophenyl)-2-Thiazolyl]Guanidine, Hydrobromide]: in the series on gastric acid secretion, the inhibition in vivo at 16 mg/kg was determined as 50%.
With `CC(=O)ON=C(N)c1cccc(-c2csc(NC(=N)N)n2)c1` [Example 7, N-(Acetyloxy)-3-[[2-[(Aminoiminomethyl)Amino]-4-Thiazolyl]Benzenecarboximidamide, Dihydrochloride], the Kb at H2 histamine receptors [1] (setting [5]) was 39.8 nM.
With `CNC(=NC#N)NCCSCc1csc(N=C(N)N)n1` [tiotidine], the “H2 antagonist activity relative to cimetidine (in words)” value in the series on H2 histamine receptors [3] is reported as “greater activity than cimetidine”.
For the molecule `N=C(N)Nc1nc(-c2cccc(C(=O)O)c2)cs1` [Example 4, 3-[2-[(Aminoiminomethyl)Amino]-4-Thiazolyl]Benzoic Acid, Hydrochloride], the pKB value on H2 histamine receptors [1] (values marked *: result of only one experiment) was found to be 6.1.
On to `N=C(N)Nc1nc(-c2cccc(C(=N)N)c2)cs1` [Example 9, 3-[2-[(Aminoiminomethyl)Amino]-4-Thiazolyl]Benzenecarboximidamide, Dihydrobromide, Hemiethanolate], for which the Kb on H2 histamine receptors [1] (setting [5]) is 5.01 nM. Besides, the inhibition in vivo at 32 mg/kg with gastric acid secretion came out at 55%.
